These results are taken from ChEMBL document CHEMBL4330132, “5-Keto-3-cyano-2,4-diaminothiophenes as selective maternal embryonic leucine zipper kinase inhibitors” (Bioorg Med Chem Lett, 2019).

The target of test [1] is Cyclin-dependent kinase 2 (Homo sapiens) (UniProt P24941). Kind of test: Binding affinity to wild-type human full length CDK2 (M1 to L298 residues) expressed in bacterial expression system assessed as residual binding level at 1 uM by Kinomescan method relative to control.
Test [2] relates to Hepatocyte growth factor receptor (Homo sapiens), P08581 [M1250T]. As to the kind of experiment: Binding affinity to human partial length MET M1250T mutant (D1010 to S1367 residues) expressed in bacterial expression system assessed as residual binding level at 1 uM by Kinomescan method relative to control.
The target in test [3] is Serine/threonine-protein kinase Nek9 (Homo sapiens) (UniProt Q8TD19). As to the kind of experiment: Binding affinity to wild-type human partial length NEK9 (P32 to R328 residues) expressed in bacterial expression system assessed as residual binding level at 1 uM by Kinomescan method relative to control.
The target in test [4] is Tyrosine-protein kinase BTK (Homo sapiens) (UniProt Q06187). As to the kind of experiment: Binding affinity to wild-type human full length BTK (M1 to S659 residues) expressed in mammalian expression system assessed as residual binding level at 1 uM by Kinomescan method relative to control.
Test [5] has as its target Myosin light chain kinase (Homo sapiens) (UniProt Q32MK0). Kind of test: Binding affinity to wild-type human partial length MLCK (D488 to K800 residues) expressed in bacterial expression system assessed as residual binding level at 1 uM by Kinomescan method relative to control.
The target in test [6] is Rho-associated protein kinase 2 (Homo sapiens) (UniProt O75116). Kind of test: Binding affinity to wild-type human partial length ROCK2 (M1 to T431 residues) expressed in mammalian expression system assessed as residual binding level at 1 uM by Kinomescan method relative to control.
Test [7] concerns Tyrosine-protein kinase ABL1 (Homo sapiens), P00519 [Y253F]. Kind of test: Binding affinity to human phosphorylated ABL1 Y253F mutant (S229 to K512 residues) expressed in mammalian expression system assessed as residual binding level at 1 uM by Kinomescan method relative to control.
In test [8] the target is Serine/threonine-protein kinase VRK2 (Homo sapiens) (UniProt Q86Y07). Kind of test: Binding affinity to wild-type human partial length VRK2 (M1 to T336 residues) expressed in mammalian expression system assessed as residual binding level at 1 uM by Kinomescan method relative to control.
Test [9] has as its target 3-phosphoinositide-dependent protein kinase 1 (Homo sapiens) (UniProt O15530). As to the kind of experiment: Binding affinity to wild-type human full length PDPK1 (M1 to Q556 residues) expressed in bacterial expression system assessed as residual binding level at 1 uM by Kinomescan method relative to control.
In test [10] the target is Receptor-interacting serine/threonine-protein kinase 1 (Homo sapiens) (UniProt Q13546). Kind of test: Binding affinity to wild-type human partial length RIPK1 (M1 to K305 residues) expressed in bacterial expression system assessed as residual binding level at 1 uM by Kinomescan method relative to control.
Test [11] concerns the target Calcium/calmodulin-dependent protein kinase type II subunit delta (Homo sapiens) (UniProt Q13557). As to the kind of experiment: Binding affinity to wild-type human partial length CAMK2D (M1 to E329 residues) expressed in bacterial expression system assessed as residual binding level at 1 uM by Kinomescan method relative to control.
The test system of test [12] is Receptor-type tyrosine-protein kinase FLT3 (Homo sapiens), P36888 [UNDEFINED MUTATION]. Kind of test: Binding affinity to human partial length FLT3 ITD mutant expressed in bacterial expression system assessed as residual binding level at 1 uM by Kinomescan method relative to control.
In test [13] the target is Ephrin type-A receptor 2 (Homo sapiens) (UniProt P29317). Kind of test: Binding affinity to wild-type human partial length EPHA2 (T593 to V891 residues) expressed in bacterial expression system assessed as residual binding level at 1 uM by Kinomescan method relative to control.
Test [14] deals with Cyclin-dependent kinase 13 (Homo sapiens) (UniProt Q14004). As to the kind of experiment: Binding affinity to wild-type human partial length CDC2L5 (H675 to S1054 residues) expressed in mammalian expression system assessed as residual binding level at 1 uM by Kinomescan method relative to control.
The target of test [15] is Serine/threonine-protein kinase 16 (Homo sapiens) (UniProt O75716). Kind of test: Binding affinity to wild-type human partial length STK16 (G11 to I305 residues) expressed in bacterial expression system assessed as residual binding level at 1 uM by Kinomescan method relative to control.
The target of test [16] is Phosphorylase b kinase gamma catalytic chain, liver/testis isoform (Homo sapiens) (UniProt P15735). Kind of test: Binding affinity to wild-type human partial length PHKG2 (M1 to W300 residues) expressed in bacterial expression system assessed as residual binding level at 1 uM by Kinomescan method relative to control.
The target of test [17] is Tyrosine-protein kinase JAK2 (Homo sapiens) (UniProt O60674). Kind of test: Binding affinity to wild-type human partial length JAK2 JH1 catalytic domain (A829 to G1132 residues) expressed in mammalian expression system assessed as residual binding level at 1 uM by Kinomescan method relative to control.
The target in test [18] is Aurora kinase C (Homo sapiens) (UniProt Q9UQB9). As to the kind of experiment: Binding affinity to wild-type human full length AURKC (M1 to S275 residues) expressed in bacterial expression system assessed as residual binding level at 1 uM by Kinomescan method relative to control.
Test [19] deals with Tyrosine-protein kinase receptor UFO (Homo sapiens) (UniProt P30530). Kind of test: Binding affinity to wild-type human partial length AXL (R497 to Y821 residues) expressed in bacterial expression system assessed as residual binding level at 1 uM by Kinomescan method relative to control.
Test [20] addresses MAP/microtubule affinity-regulating kinase 3 (Homo sapiens) (UniProt P27448). Kind of test: Binding affinity to wild-type human full length MARK3 (M1 to L729 residues) expressed in bacterial expression system assessed as residual binding level at 1 uM by Kinomescan method relative to control.
Test [21] has as its target Mitogen-activated protein kinase kinase kinase kinase 4 (Homo sapiens) (UniProt O95819). Kind of test: Binding affinity to wild-type human partial length MAP4K4 (M1 to R310 residues) expressed in bacterial expression system assessed as residual binding level at 1 uM by Kinomescan method relative to control.
Test [22] deals with Tyrosine-protein kinase receptor TYRO3 (Homo sapiens) (UniProt Q06418). Kind of test: Binding affinity to wild-type human partial length TYRO3 (S497 to T814 residues) expressed in bacterial expression system assessed as residual binding level at 1 uM by Kinomescan method relative to control.
For test [23], the target named is Protein kinase C delta type (Homo sapiens) (UniProt Q05655). As to the kind of experiment: Binding affinity to wild-type human partial length PRKCD (Q328 to D676 residues) expressed in bacterial expression system assessed as residual binding level at 1 uM by Kinomescan method relative to control.
For test [24], the target named is Ephrin type-B receptor 4 (Homo sapiens) (UniProt P54760). As to the kind of experiment: Binding affinity to wild-type human partial length EPHB4 (H585 to G892 residues) expressed in bacterial expression system assessed as residual binding level at 1 uM by Kinomescan method relative to control.

Chain of MAP/microtubule affinity-regulating kinase 3 (Homo sapiens) (P27448 whole entry, looked up, the tested form may be a part): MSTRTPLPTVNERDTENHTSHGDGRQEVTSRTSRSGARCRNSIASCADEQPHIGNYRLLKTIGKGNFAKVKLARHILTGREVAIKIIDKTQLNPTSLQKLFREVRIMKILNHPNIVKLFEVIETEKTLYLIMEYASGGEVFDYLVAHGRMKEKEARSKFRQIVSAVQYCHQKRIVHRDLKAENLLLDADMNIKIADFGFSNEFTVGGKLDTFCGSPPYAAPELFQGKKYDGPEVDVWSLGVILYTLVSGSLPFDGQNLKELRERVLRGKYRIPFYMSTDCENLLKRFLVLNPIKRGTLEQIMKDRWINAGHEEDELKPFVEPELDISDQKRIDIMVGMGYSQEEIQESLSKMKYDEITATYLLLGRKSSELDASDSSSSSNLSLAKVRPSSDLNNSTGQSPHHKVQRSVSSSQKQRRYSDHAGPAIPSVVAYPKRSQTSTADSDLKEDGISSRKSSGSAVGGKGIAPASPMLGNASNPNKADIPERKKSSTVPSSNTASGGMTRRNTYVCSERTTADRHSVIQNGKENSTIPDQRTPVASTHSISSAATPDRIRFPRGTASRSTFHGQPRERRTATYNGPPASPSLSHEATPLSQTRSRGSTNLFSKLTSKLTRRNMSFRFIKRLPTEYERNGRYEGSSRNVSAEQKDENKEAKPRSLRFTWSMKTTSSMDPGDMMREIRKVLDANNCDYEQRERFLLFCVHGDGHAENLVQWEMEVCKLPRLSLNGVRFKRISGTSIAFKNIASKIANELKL
Chain of Serine/threonine-protein kinase Nek9 (Homo sapiens) (Q8TD19 whole entry, the tested form may be a part): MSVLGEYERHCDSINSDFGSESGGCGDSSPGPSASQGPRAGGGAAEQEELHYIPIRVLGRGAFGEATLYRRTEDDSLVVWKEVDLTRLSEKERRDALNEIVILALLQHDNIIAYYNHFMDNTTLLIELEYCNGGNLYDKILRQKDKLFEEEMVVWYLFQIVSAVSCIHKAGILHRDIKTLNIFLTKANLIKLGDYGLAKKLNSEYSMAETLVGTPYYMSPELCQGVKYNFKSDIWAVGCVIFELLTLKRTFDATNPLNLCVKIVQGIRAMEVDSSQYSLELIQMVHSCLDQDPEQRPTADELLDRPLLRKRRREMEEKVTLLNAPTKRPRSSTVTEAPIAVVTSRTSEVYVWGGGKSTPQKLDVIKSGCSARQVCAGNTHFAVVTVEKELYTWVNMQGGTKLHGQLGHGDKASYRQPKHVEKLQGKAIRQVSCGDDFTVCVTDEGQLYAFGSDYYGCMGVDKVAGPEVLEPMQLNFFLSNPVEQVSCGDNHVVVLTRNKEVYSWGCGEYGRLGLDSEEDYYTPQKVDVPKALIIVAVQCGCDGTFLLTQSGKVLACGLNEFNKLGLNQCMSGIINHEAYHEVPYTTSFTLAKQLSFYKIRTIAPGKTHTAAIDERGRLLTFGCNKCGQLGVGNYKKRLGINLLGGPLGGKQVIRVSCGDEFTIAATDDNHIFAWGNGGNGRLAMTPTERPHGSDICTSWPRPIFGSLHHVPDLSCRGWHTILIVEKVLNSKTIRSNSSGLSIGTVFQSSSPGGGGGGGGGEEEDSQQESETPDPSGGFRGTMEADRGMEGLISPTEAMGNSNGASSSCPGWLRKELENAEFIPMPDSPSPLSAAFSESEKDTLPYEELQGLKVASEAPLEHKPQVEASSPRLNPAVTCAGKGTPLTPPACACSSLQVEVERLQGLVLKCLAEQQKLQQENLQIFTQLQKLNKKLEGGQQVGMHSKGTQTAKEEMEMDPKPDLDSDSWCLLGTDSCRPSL
Chain of Protein kinase C delta type (Homo sapiens) (Q05655 whole entry, looked up, the tested form may be a part): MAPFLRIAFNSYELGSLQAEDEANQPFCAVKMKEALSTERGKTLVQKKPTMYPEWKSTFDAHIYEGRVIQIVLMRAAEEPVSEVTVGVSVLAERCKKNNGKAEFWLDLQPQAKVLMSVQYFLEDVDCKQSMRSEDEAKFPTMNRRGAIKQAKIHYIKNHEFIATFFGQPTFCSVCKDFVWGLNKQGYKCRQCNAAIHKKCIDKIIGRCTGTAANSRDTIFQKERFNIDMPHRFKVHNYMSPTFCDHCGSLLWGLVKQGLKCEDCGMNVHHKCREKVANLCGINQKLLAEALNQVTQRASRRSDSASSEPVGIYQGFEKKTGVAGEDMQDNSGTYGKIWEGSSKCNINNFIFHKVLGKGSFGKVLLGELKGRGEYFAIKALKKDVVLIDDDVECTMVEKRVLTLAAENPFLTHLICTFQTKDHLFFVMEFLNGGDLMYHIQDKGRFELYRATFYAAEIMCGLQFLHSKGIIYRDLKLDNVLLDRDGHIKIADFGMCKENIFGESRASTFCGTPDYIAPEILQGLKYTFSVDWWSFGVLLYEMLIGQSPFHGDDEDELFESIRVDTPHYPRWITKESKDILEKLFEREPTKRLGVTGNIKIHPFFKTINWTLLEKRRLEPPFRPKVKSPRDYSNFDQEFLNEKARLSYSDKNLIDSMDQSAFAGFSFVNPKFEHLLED
Chain of Tyrosine-protein kinase BTK (Homo sapiens) (Q06187 whole entry, the tested form may be a part): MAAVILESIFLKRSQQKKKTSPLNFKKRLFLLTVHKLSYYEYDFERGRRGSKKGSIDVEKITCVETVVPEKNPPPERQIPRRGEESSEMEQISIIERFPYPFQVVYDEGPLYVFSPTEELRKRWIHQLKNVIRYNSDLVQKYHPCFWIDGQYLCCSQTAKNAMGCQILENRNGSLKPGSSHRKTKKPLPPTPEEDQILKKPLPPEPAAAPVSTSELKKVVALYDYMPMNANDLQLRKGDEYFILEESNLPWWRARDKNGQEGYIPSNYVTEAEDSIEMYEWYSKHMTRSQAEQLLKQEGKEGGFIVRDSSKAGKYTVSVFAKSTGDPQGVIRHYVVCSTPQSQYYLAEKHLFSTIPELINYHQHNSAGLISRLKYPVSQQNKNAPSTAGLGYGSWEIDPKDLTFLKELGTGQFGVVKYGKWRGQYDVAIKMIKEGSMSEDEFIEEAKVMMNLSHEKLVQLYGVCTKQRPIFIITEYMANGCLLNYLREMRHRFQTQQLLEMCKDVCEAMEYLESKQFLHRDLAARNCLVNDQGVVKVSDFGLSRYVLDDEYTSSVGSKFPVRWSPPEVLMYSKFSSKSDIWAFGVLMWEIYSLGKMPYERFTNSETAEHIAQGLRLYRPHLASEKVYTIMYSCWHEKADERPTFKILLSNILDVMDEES
Chain of Receptor-type tyrosine-protein kinase FLT3 (Homo sapiens), P36888 [UNDEFINED MUTATION] (P36888 whole entry, looked up, change not shown, the tested form may be a part): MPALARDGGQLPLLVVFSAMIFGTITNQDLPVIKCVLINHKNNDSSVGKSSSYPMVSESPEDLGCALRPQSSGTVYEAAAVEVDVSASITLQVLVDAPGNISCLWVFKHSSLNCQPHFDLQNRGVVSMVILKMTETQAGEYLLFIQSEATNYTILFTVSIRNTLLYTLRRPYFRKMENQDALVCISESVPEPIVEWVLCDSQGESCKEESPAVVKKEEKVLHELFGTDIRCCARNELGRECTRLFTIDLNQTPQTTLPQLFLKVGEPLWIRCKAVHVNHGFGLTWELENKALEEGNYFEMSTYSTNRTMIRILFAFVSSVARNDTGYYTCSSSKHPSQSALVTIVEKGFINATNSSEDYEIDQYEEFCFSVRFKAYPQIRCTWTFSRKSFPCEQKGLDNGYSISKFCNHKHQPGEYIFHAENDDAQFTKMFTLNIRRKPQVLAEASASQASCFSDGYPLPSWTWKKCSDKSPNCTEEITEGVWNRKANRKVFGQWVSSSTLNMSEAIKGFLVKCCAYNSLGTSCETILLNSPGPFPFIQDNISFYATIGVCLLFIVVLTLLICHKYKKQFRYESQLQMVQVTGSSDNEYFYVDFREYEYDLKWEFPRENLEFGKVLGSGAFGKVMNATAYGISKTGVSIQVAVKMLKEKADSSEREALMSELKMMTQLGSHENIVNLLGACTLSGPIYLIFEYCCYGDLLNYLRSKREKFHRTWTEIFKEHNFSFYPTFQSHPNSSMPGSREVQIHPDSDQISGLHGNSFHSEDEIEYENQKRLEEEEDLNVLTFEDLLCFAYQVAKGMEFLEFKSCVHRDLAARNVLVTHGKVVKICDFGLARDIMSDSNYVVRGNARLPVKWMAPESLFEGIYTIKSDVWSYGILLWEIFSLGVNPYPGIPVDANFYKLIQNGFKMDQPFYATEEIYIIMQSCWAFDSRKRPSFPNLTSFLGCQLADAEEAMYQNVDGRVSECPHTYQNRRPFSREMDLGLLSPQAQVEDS
Chain of Phosphorylase b kinase gamma catalytic chain, liver/testis isoform (Homo sapiens) (P15735 whole entry, the tested form may be a part, canonical isoform): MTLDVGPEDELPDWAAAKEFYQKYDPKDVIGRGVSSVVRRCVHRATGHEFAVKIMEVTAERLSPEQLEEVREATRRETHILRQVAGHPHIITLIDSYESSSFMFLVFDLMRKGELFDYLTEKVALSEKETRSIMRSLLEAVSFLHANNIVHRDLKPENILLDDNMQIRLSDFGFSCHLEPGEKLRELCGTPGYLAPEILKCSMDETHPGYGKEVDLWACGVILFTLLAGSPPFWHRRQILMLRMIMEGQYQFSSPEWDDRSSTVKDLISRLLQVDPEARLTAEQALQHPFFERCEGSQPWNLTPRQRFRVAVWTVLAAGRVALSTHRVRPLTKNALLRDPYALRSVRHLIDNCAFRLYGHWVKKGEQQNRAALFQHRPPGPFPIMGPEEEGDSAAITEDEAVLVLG
Chain of 3-phosphoinositide-dependent protein kinase 1 (Homo sapiens) (O15530 whole entry, the tested form may be a part): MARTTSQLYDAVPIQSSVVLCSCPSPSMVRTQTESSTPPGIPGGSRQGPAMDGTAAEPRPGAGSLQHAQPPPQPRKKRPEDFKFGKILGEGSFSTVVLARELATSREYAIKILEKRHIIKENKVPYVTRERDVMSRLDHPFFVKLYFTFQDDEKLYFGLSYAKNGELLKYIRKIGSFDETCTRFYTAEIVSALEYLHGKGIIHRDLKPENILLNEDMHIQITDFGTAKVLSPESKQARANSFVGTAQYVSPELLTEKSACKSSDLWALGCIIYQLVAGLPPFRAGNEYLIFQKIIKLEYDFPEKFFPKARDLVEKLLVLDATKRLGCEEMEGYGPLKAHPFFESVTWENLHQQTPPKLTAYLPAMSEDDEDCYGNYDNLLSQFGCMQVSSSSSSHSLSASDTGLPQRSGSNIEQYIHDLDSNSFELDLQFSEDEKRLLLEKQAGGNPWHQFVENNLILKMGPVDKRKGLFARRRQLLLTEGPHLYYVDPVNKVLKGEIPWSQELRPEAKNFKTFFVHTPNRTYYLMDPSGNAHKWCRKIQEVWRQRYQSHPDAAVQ

Take `CC(C)Nc1sc(C(=O)c2ccc(Cl)s2)c(N)c1C#N`: the Activity was 66% in test [1]; 78% in [2]; 85% in test [3]; 74% in test [4]; 71% in test [5]; 100% in [6]. The Activity in test [7] stood at 100%; in test [8], 100%; in test [9], 84%; in test [10] it was 100%; in test [11] it was 79%; in test [12], 77%. In addition, the Activity in test [13] was determined as 100%; in test [14] it was 84%; in [15], 85%; in test [16], 72%; in test [17], 100%; in test [18], 100%. The Activity in test [19] is 89%; in [20], 78%; in [21], 46%; in test [22], 92%; in [23], 72%; in test [24] it was 93%.
